# Patent publication US20100297109A1, “METHODS FOR INHIBITING FASCIN” (Cornell University, priority 2007, published 2010)
# Tests used:
# [1] = molecular target: T1, fascin (Homo sapiens, UniProt Q16658); assay: Chamber migration of fascin siRNA-treated 4T1 cells rescued with human fascin; type: cell-based; parameters: expressed in transfected cells; host or cells: 4T1 mouse mammary tumor cells treated with mouse fascin siRNA 2; conditions: human fascin in fascin siRNA-treated 4T1 cells
# Experimental: (§1) Boyden Chamber Cell Migration Assay. Cells (5×10^4) suspended in starvation medium were added to the upper chamber of an insert (6.5 mm diameter, 8-micrometer pore size, Becton Dickenson), and the insert was placed in a 24-well dish containing starvation medium with or without 10% FBS (Yang et al. 2005, Shan et al. 2006). When used, inhibitors were added to both chambers. Migration assays were carried out for 4-6 hours and cells were fixed with 3.7% formaldehyde. Cells were stained with crystal violet staining solution, and cells on the upper side of the insert were removed with a cotton swab. Three randomly selected fields (10× objectives) on the lower side of the insert were photographed, and the migrated cells were counted. The migration was expressed as either the average number of migrated cells in a field or as percentage of migrated cells in positive control. Percentage was calculated with the formula P=100×(M−Mnc)/Mpc, where P is the percentage of migrated cells, M is the number of migrated cells, Mnc is the number of migrated cells in negative controls, and Mpc is the number of migrated cells in positive controls.
# [2] = molecular target: T1, fascin; assay: Electron microscopy of fascin-induced F-actin bundles; type: biochemical; parameters: GST (N); made in house; host or cells: Escherichia coli BL21
# [3] = molecular target: T2, villin (Homo sapiens, UniProt P09327); assay: Binding of macroketone to villin in vitro
# T2 sequence (P09327 1-827): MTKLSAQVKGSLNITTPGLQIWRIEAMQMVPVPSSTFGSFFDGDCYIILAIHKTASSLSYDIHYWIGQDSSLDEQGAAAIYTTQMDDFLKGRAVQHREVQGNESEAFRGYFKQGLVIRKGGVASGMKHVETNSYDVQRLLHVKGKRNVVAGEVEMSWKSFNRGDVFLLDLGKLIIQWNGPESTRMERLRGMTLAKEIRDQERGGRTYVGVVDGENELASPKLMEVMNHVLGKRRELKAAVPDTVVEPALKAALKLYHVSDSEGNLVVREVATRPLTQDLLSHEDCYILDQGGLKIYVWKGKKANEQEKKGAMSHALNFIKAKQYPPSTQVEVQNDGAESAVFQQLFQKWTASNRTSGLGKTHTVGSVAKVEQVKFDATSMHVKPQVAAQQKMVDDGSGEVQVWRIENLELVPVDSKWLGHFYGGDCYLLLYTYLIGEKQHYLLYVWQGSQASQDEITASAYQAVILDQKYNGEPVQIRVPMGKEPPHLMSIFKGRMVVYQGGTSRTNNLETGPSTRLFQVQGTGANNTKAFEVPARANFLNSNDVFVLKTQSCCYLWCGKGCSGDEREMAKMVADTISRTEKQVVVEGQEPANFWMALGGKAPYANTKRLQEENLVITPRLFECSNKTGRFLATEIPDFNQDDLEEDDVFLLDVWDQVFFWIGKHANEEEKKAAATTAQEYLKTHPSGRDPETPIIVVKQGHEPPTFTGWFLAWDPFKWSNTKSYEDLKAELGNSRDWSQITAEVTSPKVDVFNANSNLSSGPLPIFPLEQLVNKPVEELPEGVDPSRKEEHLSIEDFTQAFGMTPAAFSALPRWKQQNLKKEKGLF
# [4] = molecular target: T1, fascin; assay: F-actin bundling assay, low-speed centrifugation (F-actin pelleting); type: biochemical; parameters: GST (N); made in house; host or cells: Escherichia coli BL21
# Experimental: Whole cell lysates from 4T1 mouse breast tumor cells were made. After preclearing the cell lysate with immobilized neutravidin biotin binding protein (Pierce, IL, USA) to remove biotin and avidin-binding proteins, the cell lysates were loaded to a column packed with the biotin-labeled macroketone (conjugated to neutravidin beads). A control column packed with free biotin and neutravidin beads was run side-by-side. After washing the column with 10 bed volumes of lysis buffer with 300 mM NaCl, the bound proteins were eluted with 0.1 M Glycine-HCl at pH 2.8 according to the manufacturer's instruction. […] Protein Expression and Purification. Recombinant GST-fascin fusion protein was produced in BL21 Escherichia coli. A 1-liter culture was grown to an A600 reading of 1.0 and then induced by addition of 0.3 mM isopropyl 1-thio-D-galactopyranoside (IPTG) for 12 hours at 25° C. Cells were flash frozen and then lysed by sonication in Tris-buffered saline. The supernatant was then incubated with glutathione-Sepharose for 2 h at 4° C. After extensive washing, GST-fascin was eluted and concentrated with a Centricon Plus-20 (Millipore). To remove the GST tag from the fusion protein, beads were incubated with thrombin overnight at 4° C. The supernatant was collected and concentrated. […] Actin bundling activity was measured by low speed centrifugation assay and fluorescence microscopy. […]
# [5] = tested on: 4T1 cells; conditions: serum, Shan et al. 2005; cited from earlier work
# [6] = tested on: mouse embryonic fibroblast (MEF) cells; assay: Wound-healing assay, serum-induced migration of MEF cells; type: cell-based; conditions: 200 μM
# [7] = molecular target: T2, villin; assay: Migration of fascin siRNA-treated 4T1 cells rescued with villin; type: cell-based; parameters: expressed in transfected cells; host or cells: 4T1 mouse mammary tumor cells treated with fascin siRNA; conditions: villin over-expression in fascin siRNA-treated 4T1 cells
# Experimental: as §1
compound,measurement,setting,value
"COC1C=CCCCCC(=O)CCC(C)=CC(C)C1O (centres unmarked) [macroketone, Migrastatin ketone]",sensitivity of rescued migration,[1],sensitive
same,thickness of actin bundles,[2],decreased the thickness of the bundles
same,binding to villin in vitro,[3],did not bind
same,fascin-induced bundling of F-actin polymers,[4]; with fascin,significantly decreased
same,"formation of F-actin bundles, compound alone",[4]; without fascin,had no effect
same,formation of lamellipodia at the leading edge,[5],inhibited the formation of lamellipodia
same,effect on serum-induced migration (wound-healing),[6],had no effect
same,sensitivity of rescued migration,[7],insensitive
